{"source": "ChEMBL document CHEMBL1201862", "about": "“PubChem BioAssay data set” (2004)", "experiment_in_all_cases": "inhibition of tumour cell growth, NCI panel, 48 h", "key": {"SK-MEL-28": {"test_system": "SK-MEL-28"}, "UACC-62": {"test_system": "UACC-62"}, "NCI-H23": {"test_system": "NCI-H23"}, "DMS-273": {"test_system": "DMS-273"}, "SW-620": {"test_system": "SW-620"}, "LOX IMVI": {"test_system": "LOX IMVI"}, "OVCAR-5": {"test_system": "OVCAR-5"}, "OVCAR-3": {"test_system": "OVCAR-3"}, "HCT-15": {"test_system": "HCT-15"}, "RXF 631": {"test_system": "RXF 631"}, "SK-MEL-5": {"test_system": "SK-MEL-5"}, "CAKI-1": {"test_system": "CAKI-1"}, "TK-10": {"test_system": "TK-10"}, "NCI-H226": {"test_system": "NCI-H226"}, "SNB-75": {"test_system": "SNB-75"}, "RPMI-8226": {"test_system": "RPMI-8226"}, "HL-60": {"test_system": "HL-60"}, "EKVX": {"test_system": "EKVX"}, "Malme-3M": {"test_system": "Malme-3M"}, "HCT-116": {"test_system": "HCT-116"}, "SK-MEL-2": {"test_system": "SK-MEL-2"}, "HOP-18": {"test_system": "HOP-18"}, "SF-295": {"test_system": "SF-295"}, "786-0": {"test_system": "786-0"}, "HOP-92": {"test_system": "HOP-92"}, "KM-20L2": {"test_system": "KM-20L2"}, "LXFL 529": {"test_system": "LXFL 529"}, "M14": {"test_system": "M14"}, "DMS-114": {"test_system": "DMS-114"}, "NCI-H460": {"test_system": "NCI-H460"}, "RXF 393": {"test_system": "RXF 393"}, "HT-29": {"test_system": "HT-29"}, "UO-31": {"test_system": "UO-31"}, "OVCAR-4": {"test_system": "OVCAR-4"}, "DLD-1": {"test_system": "DLD-1"}, "SF-268": {"test_system": "SF-268"}, "K562": {"test_system": "K562"}, "UACC-257": {"test_system": "UACC-257"}, "MOLT-4": {"test_system": "MOLT-4"}, "U-251": {"test_system": "U-251"}, "SN12C": {"test_system": "SN12C"}, "SF-539": {"test_system": "SF-539"}, "A498": {"test_system": "A498"}, "IGROV-1": {"test_system": "IGROV-1"}, "SNB-78": {"test_system": "SNB-78"}, "HOP-62": {"test_system": "HOP-62"}, "A549": {"test_system": "A549"}, "KM12": {"test_system": "KM12"}, "SNB-19": {"test_system": "SNB-19"}, "ACHN": {"test_system": "ACHN"}, "HCC 2998": {"test_system": "HCC 2998"}, "M19-MEL": {"test_system": "M19-MEL"}, "OVCAR-8": {"test_system": "OVCAR-8"}, "NCI-H522": {"test_system": "NCI-H522"}, "SR": {"test_system": "SR"}, "SK-OV-3": {"test_system": "SK-OV-3"}, "CCRF-CEM": {"test_system": "CCRF-CEM"}, "COLO 205": {"test_system": "COLO 205"}}, "note": "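Assay format: 96-well plates, 48-hour exposure. The concentration for 50% growth inhibition is given as GI50.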 The source made the active and inactive calls. No stated cut-off is given here; in the data, active = GI50 up to about 1.1 µM and inactive = higher.", "data": [{"smiles": "Nc1nc(N)c(-c2ccccc2)c(C(=O)Nc2ccc(Cl)c(Cl)c2)n1", "values": [{"measurement": "GI50", "setting": "SK-MEL-28", "result": "> 100 µM (inactive)"}, {"measurement": "GI50", "setting": "UACC-62", "result": "> 100 µM (inactive)"}, {"measurement": "GI50", "setting": "NCI-H23", "result": "> 100 µM (inactive)"}, {"measurement": "GI50", "setting": "DMS-273", "result": "> 100 µM (inactive)"}, {"measurement": "GI50", "setting": "SW-620", "result": "> 100 µM (inactive)"}, {"measurement": "GI50", "setting": "LOX IMVI", "result": "> 100 µM (inactive)"}, {"measurement": "GI50", "setting": "OVCAR-5", "result": "> 100 µM (inactive)"}, {"measurement": "GI50", "setting": "OVCAR-3", "result": "> 100 µM (inactive)"}, {"measurement": "GI50", "setting": "HCT-15", "result": "> 100", "unit": "µM"}, {"measurement": "GI50", "setting": "RXF 631", "result": "> 100 µM (inactive)"}, {"measurement": "GI50", "setting": "SK-MEL-5", "result": "> 100 µM (inactive)"}, {"measurement": "GI50", "setting": "CAKI-1", "result": "> 100 µM (inactive)"}, {"measurement": "GI50", "setting": "TK-10", "result": "> 100 µM (inactive)"}, {"measurement": "GI50", "setting": "NCI-H226", "result": "> 100 µM (inactive)"}, {"measurement": "GI50", "setting": "SNB-75", "result": "> 100 µM (inactive)"}, {"measurement": "GI50", "setting": "RPMI-8226", "result": "46.8 µM (inactive)"}, {"measurement": "GI50", "setting": "HL-60", "result": "> 100 µM (inactive)"}, {"measurement": "GI50", "setting": "EKVX", "result": "> 100 µM (inactive)"}, {"measurement": "GI50", "setting": "Malme-3M", "result": "> 100 µM (inactive)"}, {"measurement": "GI50", "setting": "HCT-116", "result": "> 100 µM (inactive)"}, {"measurement": "GI50", "setting": "SK-MEL-2", "result": "> 100 µM (inactive)"}, {"measurement": "GI50", "setting": "HOP-18", "result": "> 100 µM (inactive)"}, {"measurement": "GI50", "setting": "SF-295", "result": "> 100 µM (inactive)"}, {"measurement": "GI50", "setting": "786-0", "result": "> 100 µM (inactive)"}, {"measurement": "GI50", "setting": "HOP-92", "result": "> 100 µM (inactive)"}, {"measurement": "GI50", "setting": "KM-20L2", "result": "> 100 µM (inactive)"}, {"measurement": "GI50", "setting": "LXFL 529", "result": "> 100 µM (inactive)"}, {"measurement": "GI50", "setting": "M14", "result": "> 100 µM (inactive)"}, {"measurement": "GI50", "setting": "DMS-114", "result": "> 100 µM (inactive)"}, {"measurement": "GI50", "setting": "NCI-H460", "result": "> 100 µM (inactive)"}, {"measurement": "GI50", "setting": "RXF 393", "result": "> 100 µM (inactive)"}, {"measurement": "GI50", "setting": "HT-29", "result": "> 100 µM (inactive)"}, {"measurement": "GI50", "setting": "UO-31", "result": "> 100 µM (inactive)"}, {"measurement": "GI50", "setting": "OVCAR-4", "result": "> 100 µM (inactive)"}, {"measurement": "GI50", "setting": "DLD-1", "result": "> 100 µM (inactive)"}, {"measurement": "GI50", "setting": "SF-268", "result": "> 100 µM (inactive)"}, {"measurement": "GI50", "setting": "K562", "result": "> 100 µM (inactive)"}, {"measurement": "GI50", "setting": "UACC-257", "result": "> 100 µM (inactive)"}, {"measurement": "GI50", "setting": "MOLT-4", "result": "> 100 µM (inactive)"}, {"measurement": "GI50", "setting": "U-251", "result": "> 100 µM (inactive)"}, {"measurement": "GI50", "setting": "SN12C", "result": "> 100 µM (inactive)"}, {"measurement": "GI50", "setting": "SF-539", "result": "> 100 µM (inactive)"}, {"measurement": "GI50", "setting": "A498", "result": "> 100 µM (inactive)"}, {"measurement": "GI50", "setting": "IGROV-1", "result": "> 100 µM (inactive)"}, {"measurement": "GI50", "setting": "SNB-78", "result": "> 100 µM (inactive)"}, {"measurement": "GI50", "setting": "HOP-62", "result": "> 100 µM (inactive)"}, {"measurement": "GI50", "setting": "A549", "result": "> 100 µM (inactive)"}, {"measurement": "GI50", "setting": "KM12", "result": "> 100 µM (inactive)"}, {"measurement": "GI50", "setting": "SNB-19", "result": "> 100 µM (inactive)"}, {"measurement": "GI50", "setting": "ACHN", "result": "> 100 µM (inactive)"}, {"measurement": "GI50", "setting": "HCC 2998", "result": "> 100 µM (inactive)"}, {"measurement": "GI50", "setting": "M19-MEL", "result": "> 100 µM (inactive)"}, {"measurement": "GI50", "setting": "OVCAR-8", "result": "> 100 µM (inactive)"}]}, {"smiles": "CCN1C(=O)N2C(OC)c3ccccc3C(Br)C2(OC)C1=O", "note": "(stereo not drawn)", "values": [{"measurement": "GI50", "setting": "SK-MEL-28", "result": "> 100 µM (inactive)"}, {"measurement": "GI50", "setting": "UACC-62", "result": "> 100 µM (inactive)"}, {"measurement": "GI50", "setting": "NCI-H23", "result": "> 100 µM (inactive)"}, {"measurement": "GI50", "setting": "DMS-273", "result": "> 100 µM (inactive)"}, {"measurement": "GI50", "setting": "SW-620", "result": "> 100 µM (inactive)"}, {"measurement": "GI50", "setting": "LOX IMVI", "result": "> 100 µM (inactive)"}, {"measurement": "GI50", "setting": "OVCAR-5", "result": "> 100 µM (inactive)"}, {"measurement": "GI50", "setting": "OVCAR-3", "result": "> 100 µM (inactive)"}, {"measurement": "GI50", "setting": "HCT-15", "result": "> 100", "unit": "µM"}, {"measurement": "GI50", "setting": "RXF 631", "result": "> 100 µM (inactive)"}, {"measurement": "GI50", "setting": "SK-MEL-5", "result": "> 100 µM (inactive)"}, {"measurement": "GI50", "setting": "CAKI-1", "result": "> 100 µM (inactive)"}, {"measurement": "GI50", "setting": "TK-10", "result": "> 100 µM (inactive)"}, {"measurement": "GI50", "setting": "NCI-H226", "result": "> 100 µM (inactive)"}, {"measurement": "GI50", "setting": "SNB-75", "result": "48.3 µM (inactive)"}, {"measurement": "GI50", "setting": "RPMI-8226", "result": "> 100 µM (inactive)"}, {"measurement": "GI50", "setting": "HL-60", "result": "> 100 µM (inactive)"}, {"measurement": "GI50", "setting": "Malme-3M", "result": "> 100 µM (inactive)"}, {"measurement": "GI50", "setting": "SK-MEL-2", "result": "> 100 µM (inactive)"}, {"measurement": "GI50", "setting": "SF-295", "result": "> 100 µM (inactive)"}, {"measurement": "GI50", "setting": "NCI-H522", "result": "> 100 µM (inactive)"}, {"measurement": "GI50", "setting": "KM-20L2", "result": "> 100 µM (inactive)"}, {"measurement": "GI50", "setting": "LXFL 529", "result": "> 100 µM (inactive)"}, {"measurement": "GI50", "setting": "M14", "result": "> 100 µM (inactive)"}, {"measurement": "GI50", "setting": "DMS-114", "result": "> 100 µM (inactive)"}, {"measurement": "GI50", "setting": "NCI-H460", "result": "> 100 µM (inactive)"}, {"measurement": "GI50", "setting": "UO-31", "result": "> 100 µM (inactive)"}, {"measurement": "GI50", "setting": "OVCAR-4", "result": "> 100 µM (inactive)"}, {"measurement": "GI50", "setting": "SR", "result": "> 100 µM (inactive)"}, {"measurement": "GI50", "setting": "DLD-1", "result": "> 100 µM (inactive)"}, {"measurement": "GI50", "setting": "K562", "result": "> 100 µM (inactive)"}, {"measurement": "GI50", "setting": "MOLT-4", "result": "> 100 µM (inactive)"}, {"measurement": "GI50", "setting": "U-251", "result": "> 100 µM (inactive)"}, {"measurement": "GI50", "setting": "SN12C", "result": "> 100 µM (inactive)"}, {"measurement": "GI50", "setting": "SK-OV-3", "result": "> 100 µM (inactive)"}, {"measurement": "GI50", "setting": "A498", "result": "> 100 µM (inactive)"}, {"measurement": "GI50", "setting": "IGROV-1", "result": "> 100 µM (inactive)"}, {"measurement": "GI50", "setting": "HOP-62", "result": "> 100 µM (inactive)"}, {"measurement": "GI50", "setting": "CCRF-CEM", "result": "> 100 µM (inactive)"}, {"measurement": "GI50", "setting": "KM12", "result": "> 100 µM (inactive)"}, {"measurement": "GI50", "setting": "SNB-19", "result": "> 100 µM (inactive)"}, {"measurement": "GI50", "setting": "HCC 2998", "result": "> 100 µM (inactive)"}, {"measurement": "GI50", "setting": "M19-MEL", "result": "> 100 µM (inactive)"}, {"measurement": "GI50", "setting": "COLO 205", "result": "> 100 µM (inactive)"}, {"measurement": "GI50", "setting": "OVCAR-8", "result": "> 100 µM (inactive)"}]}]}
